{"source": "patent US20260207585A1", "about": "“METHODS AND COMPOSITIONS FOR THE TREATMENT OF PARKINSON'S DISEASE, HUNTINGTON'S DISEASE, AMYOTROPHIC LATERAL SCLEROSIS, AND LEARNING DISORDERS” (Cedars-Sinai Medical Center, priority 2022, published 2026)", "type_in_all_cases": "biochemical", "key": {"NRMT1": {"biological_target": "T1, NRMT1 (Homo sapiens, UniProt Q9BV86)", "T1 sequence (Q9BV86 1-223)": "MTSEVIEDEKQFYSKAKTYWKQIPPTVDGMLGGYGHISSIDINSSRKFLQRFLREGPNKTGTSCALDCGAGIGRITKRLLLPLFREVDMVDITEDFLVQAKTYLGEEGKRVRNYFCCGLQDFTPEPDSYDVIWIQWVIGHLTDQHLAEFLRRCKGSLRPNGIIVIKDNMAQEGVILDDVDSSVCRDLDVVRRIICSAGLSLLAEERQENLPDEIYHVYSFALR", "experiment": "Methyltransferase inhibition panel: NRMT1", "procedure": "(§1) The ability of ETP69 to inhibit methyltransferases was tested."}, "MLL3 Complex": {"biological_target": "MLL3 Complex (Homo sapiens, UniProt Q8NEZ4)", "sequence (Q15291 whole entry)": "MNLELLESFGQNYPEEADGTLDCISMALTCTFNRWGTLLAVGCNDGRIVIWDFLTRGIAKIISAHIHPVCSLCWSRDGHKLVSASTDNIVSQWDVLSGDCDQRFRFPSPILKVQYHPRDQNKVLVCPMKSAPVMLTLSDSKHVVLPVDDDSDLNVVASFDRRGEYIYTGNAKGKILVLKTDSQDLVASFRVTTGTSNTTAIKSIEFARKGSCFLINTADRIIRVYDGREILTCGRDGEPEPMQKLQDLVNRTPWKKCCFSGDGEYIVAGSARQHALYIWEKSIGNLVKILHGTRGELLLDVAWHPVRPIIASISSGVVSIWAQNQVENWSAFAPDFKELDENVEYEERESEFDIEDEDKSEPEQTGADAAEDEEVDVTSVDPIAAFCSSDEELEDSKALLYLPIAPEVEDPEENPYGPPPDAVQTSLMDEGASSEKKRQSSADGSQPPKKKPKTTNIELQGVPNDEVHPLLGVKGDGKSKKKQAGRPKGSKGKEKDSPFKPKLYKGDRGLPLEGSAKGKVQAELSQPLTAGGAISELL", "sequence (Q8NEZ4 4689-4911)": "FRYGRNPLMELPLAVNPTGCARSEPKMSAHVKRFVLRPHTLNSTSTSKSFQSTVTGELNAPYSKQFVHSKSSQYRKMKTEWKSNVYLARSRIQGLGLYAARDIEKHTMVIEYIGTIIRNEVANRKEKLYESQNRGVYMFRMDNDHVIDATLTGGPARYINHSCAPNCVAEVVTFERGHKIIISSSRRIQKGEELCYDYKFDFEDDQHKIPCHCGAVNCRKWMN", "sequence (Q9UBL3 96-628, further chain)": "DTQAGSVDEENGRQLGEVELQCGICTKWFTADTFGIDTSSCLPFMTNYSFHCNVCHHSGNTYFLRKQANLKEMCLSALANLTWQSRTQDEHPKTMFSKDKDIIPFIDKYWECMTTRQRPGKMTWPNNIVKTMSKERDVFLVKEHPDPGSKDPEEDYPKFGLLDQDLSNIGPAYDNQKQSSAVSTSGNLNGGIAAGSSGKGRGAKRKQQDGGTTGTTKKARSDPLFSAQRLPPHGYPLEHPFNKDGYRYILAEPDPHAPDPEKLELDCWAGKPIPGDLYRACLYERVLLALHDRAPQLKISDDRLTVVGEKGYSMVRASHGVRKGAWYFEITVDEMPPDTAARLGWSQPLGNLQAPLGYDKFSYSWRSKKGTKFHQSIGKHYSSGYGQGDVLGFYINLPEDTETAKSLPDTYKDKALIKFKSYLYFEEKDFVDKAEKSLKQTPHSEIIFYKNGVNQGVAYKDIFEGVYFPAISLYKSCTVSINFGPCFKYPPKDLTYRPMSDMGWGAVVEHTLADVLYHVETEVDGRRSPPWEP", "sequence (Q9C005 whole entry, further chain)": "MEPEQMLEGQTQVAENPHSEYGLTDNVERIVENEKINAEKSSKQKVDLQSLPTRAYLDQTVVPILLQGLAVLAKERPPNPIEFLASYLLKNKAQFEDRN", "experiment": "Methyltransferase inhibition panel: MLL3 Complex", "procedure": "as §1"}, "PRMT5 (C449S)/MEP50": {"biological_target": "PRMT5 (C449S)/MEP50 (Homo sapiens, UniProt O14744, C449S)", "sequence (O14744 whole entry C449S)": "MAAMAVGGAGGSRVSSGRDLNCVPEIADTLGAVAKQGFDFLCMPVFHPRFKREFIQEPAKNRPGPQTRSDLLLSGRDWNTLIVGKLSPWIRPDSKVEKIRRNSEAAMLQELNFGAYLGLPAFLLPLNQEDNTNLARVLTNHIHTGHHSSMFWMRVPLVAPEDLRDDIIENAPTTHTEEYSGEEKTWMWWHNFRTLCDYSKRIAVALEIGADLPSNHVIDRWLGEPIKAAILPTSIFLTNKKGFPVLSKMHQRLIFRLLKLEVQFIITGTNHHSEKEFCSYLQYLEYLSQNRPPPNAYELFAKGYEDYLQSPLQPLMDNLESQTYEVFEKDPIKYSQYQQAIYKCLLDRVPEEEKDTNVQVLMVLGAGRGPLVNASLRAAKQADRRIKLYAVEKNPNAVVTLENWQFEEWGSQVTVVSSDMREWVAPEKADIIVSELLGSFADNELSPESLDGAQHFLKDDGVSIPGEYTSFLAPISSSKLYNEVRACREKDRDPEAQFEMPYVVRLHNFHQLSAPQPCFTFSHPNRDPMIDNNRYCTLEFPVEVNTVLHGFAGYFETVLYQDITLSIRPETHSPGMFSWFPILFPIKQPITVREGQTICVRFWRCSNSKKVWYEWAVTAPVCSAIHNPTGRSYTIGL", "sequence (Q9BQA1 whole entry partner)": "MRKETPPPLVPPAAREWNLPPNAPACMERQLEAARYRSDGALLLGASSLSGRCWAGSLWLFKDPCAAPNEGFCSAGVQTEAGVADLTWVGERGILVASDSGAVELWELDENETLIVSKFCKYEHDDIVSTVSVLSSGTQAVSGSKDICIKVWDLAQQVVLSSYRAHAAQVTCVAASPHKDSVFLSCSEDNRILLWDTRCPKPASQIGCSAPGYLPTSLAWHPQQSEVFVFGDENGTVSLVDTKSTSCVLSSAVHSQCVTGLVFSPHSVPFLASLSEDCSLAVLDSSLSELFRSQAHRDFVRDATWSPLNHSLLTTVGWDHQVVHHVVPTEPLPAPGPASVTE", "experiment": "Methyltransferase inhibition panel: PRMT5 (C449S)/MEP50", "procedure": "as §1"}, "EZH1 Complex": {"biological_target": "EZH1 Complex (Homo sapiens, UniProt Q92800)", "experiment": "Methyltransferase inhibition panel: EZH1 Complex", "settings": "NT1721 20 μM; substrate Core Histone 0.05 mg/mL", "procedure": "as §1"}, "NSD2 (T1150A)": {"biological_target": "T2, NSD2 (T1150A) (Homo sapiens, UniProt O96028, T1150A)", "T2 sequence (O96028 1-1365 T1150A)": "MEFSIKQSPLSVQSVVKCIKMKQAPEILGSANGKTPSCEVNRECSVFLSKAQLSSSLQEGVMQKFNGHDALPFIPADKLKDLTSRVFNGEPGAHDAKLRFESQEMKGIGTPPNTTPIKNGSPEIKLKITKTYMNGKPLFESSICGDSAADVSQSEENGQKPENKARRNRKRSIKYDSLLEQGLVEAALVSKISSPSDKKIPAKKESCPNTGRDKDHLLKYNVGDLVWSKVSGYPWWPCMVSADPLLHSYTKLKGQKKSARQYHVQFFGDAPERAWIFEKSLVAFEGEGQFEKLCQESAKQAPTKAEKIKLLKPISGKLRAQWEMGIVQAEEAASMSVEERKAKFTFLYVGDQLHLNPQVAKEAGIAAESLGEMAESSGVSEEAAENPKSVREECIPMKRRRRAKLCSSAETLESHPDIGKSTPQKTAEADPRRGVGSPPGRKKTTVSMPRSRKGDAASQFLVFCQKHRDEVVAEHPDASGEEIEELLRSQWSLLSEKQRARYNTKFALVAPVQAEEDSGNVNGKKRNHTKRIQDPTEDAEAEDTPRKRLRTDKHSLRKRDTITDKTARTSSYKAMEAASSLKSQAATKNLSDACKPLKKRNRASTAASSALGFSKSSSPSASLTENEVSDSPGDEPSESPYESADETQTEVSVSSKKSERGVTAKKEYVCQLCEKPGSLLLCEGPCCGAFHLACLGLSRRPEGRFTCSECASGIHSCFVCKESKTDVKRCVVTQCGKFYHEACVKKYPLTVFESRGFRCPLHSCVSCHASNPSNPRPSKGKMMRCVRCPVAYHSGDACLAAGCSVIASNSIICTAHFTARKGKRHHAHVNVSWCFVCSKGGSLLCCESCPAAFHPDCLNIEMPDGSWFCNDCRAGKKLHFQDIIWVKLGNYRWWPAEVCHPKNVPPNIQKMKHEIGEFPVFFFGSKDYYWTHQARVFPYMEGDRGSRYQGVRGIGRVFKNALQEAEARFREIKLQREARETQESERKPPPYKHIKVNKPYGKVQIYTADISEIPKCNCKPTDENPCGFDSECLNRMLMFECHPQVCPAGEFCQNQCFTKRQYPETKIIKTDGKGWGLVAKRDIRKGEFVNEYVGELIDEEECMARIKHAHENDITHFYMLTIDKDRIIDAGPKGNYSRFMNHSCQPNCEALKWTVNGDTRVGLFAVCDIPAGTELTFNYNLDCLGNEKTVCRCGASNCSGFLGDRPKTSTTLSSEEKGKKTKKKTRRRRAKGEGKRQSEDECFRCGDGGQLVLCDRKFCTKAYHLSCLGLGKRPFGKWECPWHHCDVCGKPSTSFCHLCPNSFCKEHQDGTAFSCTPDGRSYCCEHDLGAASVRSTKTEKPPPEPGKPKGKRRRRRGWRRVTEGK", "experiment": "Methyltransferase inhibition panel: NSD2 (T1150A)", "procedure": "as §1"}, "SUV39H1": {"biological_target": "T3, SUV39H1 (Homo sapiens, UniProt O43463)", "T3 sequence (O43463 1-412)": "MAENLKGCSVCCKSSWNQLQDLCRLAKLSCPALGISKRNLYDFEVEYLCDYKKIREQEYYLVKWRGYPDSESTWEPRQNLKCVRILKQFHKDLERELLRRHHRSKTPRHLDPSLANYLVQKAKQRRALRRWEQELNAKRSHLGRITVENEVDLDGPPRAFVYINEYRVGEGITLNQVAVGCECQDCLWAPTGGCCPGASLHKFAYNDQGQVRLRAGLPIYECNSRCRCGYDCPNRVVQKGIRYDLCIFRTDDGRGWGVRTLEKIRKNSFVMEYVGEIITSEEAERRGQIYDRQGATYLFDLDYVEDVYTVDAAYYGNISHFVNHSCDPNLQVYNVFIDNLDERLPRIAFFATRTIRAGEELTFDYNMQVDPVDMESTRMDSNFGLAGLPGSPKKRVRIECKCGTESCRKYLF", "experiment": "Methyltransferase inhibition panel: SUV39H1", "procedure": "as §1"}, "SET7/9": {"biological_target": "T4, SET7/9 (Homo sapiens, UniProt Q8WTS6)", "T4 sequence (Q8WTS6 1-366)": "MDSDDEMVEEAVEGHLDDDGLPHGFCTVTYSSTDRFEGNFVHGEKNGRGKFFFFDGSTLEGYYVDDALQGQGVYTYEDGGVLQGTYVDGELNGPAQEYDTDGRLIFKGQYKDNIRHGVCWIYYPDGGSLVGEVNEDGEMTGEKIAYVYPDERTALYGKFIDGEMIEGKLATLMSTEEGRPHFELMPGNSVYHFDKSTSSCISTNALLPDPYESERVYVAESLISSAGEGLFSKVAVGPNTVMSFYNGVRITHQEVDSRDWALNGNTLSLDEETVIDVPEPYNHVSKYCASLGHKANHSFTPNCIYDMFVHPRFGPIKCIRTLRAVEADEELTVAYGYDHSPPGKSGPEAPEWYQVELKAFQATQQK", "experiment": "Methyltransferase inhibition panel: SET7/9", "procedure": "as §1"}, "NSD1": {"biological_target": "NSD1 (Homo sapiens, UniProt Q96L73)", "sequence (Q96L73 whole entry)": "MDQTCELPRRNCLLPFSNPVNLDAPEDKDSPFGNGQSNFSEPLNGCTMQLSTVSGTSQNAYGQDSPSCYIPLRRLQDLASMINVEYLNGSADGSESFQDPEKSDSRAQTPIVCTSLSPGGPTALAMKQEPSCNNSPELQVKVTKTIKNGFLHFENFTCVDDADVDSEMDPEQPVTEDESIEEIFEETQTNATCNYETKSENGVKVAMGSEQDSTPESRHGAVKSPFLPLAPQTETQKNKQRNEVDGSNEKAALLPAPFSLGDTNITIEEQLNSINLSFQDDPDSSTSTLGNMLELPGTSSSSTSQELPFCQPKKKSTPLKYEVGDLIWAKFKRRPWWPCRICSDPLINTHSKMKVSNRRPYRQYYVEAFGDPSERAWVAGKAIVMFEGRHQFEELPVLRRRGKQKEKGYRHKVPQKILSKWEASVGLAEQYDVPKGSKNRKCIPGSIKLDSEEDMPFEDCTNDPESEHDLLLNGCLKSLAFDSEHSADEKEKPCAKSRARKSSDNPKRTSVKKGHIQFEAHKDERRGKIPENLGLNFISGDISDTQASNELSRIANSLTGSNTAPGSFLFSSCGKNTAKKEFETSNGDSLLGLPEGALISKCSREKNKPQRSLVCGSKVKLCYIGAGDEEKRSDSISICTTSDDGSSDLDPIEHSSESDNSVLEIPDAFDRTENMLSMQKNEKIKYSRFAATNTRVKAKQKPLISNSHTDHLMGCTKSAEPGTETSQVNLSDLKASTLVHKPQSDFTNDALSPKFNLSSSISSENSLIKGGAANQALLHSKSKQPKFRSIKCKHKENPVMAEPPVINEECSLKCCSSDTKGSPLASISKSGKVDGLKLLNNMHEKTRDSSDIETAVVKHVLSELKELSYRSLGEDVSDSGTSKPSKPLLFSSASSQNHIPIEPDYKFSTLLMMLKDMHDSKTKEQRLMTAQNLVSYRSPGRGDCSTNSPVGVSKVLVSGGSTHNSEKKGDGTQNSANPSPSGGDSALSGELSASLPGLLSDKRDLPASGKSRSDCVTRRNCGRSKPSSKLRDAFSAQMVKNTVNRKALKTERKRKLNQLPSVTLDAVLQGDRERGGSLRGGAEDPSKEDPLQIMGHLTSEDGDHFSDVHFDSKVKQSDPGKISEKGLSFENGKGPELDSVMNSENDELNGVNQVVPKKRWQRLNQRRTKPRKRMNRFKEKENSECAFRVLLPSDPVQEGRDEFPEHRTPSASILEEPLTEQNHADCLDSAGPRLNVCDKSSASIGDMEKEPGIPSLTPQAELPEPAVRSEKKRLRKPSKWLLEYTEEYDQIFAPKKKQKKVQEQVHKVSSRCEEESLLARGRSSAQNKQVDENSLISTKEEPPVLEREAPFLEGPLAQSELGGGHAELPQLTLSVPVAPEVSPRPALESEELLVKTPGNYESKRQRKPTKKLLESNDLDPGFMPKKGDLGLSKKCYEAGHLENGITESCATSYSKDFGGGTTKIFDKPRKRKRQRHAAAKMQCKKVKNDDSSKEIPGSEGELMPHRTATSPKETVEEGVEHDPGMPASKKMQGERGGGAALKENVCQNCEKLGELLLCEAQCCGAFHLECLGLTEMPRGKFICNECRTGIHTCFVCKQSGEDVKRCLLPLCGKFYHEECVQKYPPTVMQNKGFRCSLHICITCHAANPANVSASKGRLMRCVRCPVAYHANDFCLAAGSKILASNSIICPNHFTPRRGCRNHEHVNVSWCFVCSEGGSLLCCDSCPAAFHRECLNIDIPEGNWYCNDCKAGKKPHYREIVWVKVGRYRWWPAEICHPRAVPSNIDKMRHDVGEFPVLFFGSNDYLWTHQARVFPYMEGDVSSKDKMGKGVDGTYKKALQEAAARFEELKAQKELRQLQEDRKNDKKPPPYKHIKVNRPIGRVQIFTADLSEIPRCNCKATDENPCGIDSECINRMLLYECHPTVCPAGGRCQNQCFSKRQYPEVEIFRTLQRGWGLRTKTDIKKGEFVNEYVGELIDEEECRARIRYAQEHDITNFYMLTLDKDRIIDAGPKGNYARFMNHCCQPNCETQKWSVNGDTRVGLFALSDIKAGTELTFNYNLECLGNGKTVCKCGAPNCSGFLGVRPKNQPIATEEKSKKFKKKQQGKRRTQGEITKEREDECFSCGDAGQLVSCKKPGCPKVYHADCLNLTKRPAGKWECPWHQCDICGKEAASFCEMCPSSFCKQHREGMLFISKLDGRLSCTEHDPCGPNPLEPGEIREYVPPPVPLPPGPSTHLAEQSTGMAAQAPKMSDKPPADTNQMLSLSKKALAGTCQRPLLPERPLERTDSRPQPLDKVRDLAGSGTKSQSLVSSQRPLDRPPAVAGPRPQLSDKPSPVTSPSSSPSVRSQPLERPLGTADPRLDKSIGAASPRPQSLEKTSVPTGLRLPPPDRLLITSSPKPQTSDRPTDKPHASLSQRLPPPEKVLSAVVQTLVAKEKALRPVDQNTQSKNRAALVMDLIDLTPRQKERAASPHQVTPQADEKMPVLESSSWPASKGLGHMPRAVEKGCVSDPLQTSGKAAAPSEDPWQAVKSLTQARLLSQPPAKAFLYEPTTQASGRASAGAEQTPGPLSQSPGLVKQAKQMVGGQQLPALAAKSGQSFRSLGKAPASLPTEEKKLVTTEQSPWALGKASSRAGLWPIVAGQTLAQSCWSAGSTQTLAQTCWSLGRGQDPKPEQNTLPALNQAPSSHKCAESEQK", "experiment": "Methyltransferase inhibition panel: NSD1", "procedure": "as §1"}, "[1]": {"settings": "read-out: Enzyme % Activity (relative to DMSO controls) Data 1"}, "[2]": {"settings": "read-out: Enzyme % Activity (relative to DMSO controls) Data 2"}, "[3]": {"settings": "NT1721 20 μM, substrate Nucleosomes 0.05 mg/mL"}}, "note": "Where two headings read alike, the source gives them in different places."}
{"smiles": "CN1C(=O)[C@@]23C[C@](C)(C#N)[C@H](c4ccc5c(c4)OCO5)N2C(=O)[C@]1(C)SS3", "note": "(racemic) [ETP69, Rac-(3S,6S,7S,8aS)-6-(benzo[d][1,3]dioxol-5-yl)-2,3,7-trimethyl-1,4-dioxohexahydro-6H-3,8a-epidithiopyrrolo[1,2-a]pyrazine-7-carbonitrile]", "values": [{"measurement": "remaining activity at 20 µM", "setting": "NRMT1; [1]", "result": 90.5, "unit": "%"}, {"measurement": "remaining activity at 20 µM", "setting": "NRMT1; [2]", "result": 94.6, "unit": "%"}, {"measurement": "remaining activity at 20 µM", "setting": "MLL3 Complex; [1]", "result": 36.6, "unit": "%"}, {"measurement": "remaining activity at 20 µM", "setting": "MLL3 Complex; [2]", "result": 32.6, "unit": "%"}, {"measurement": "inhibition relative to DMSO controls", "setting": "MLL3 Complex; summary of Table 1", "result": "at least 7500"}, {"measurement": "remaining activity at 20 µM", "setting": "PRMT5 (C449S)/MEP50; [1]", "result": 121, "unit": "%"}, {"measurement": "remaining activity at 20 µM", "setting": "PRMT5 (C449S)/MEP50; [2]", "result": 123, "unit": "%"}, {"measurement": "Enzyme % Activity (relative to DMSO controls) Data 1", "setting": "EZH1 Complex", "result": 103.44, "unit": "%"}, {"measurement": "Enzyme % Activity (relative to DMSO controls) Data 2", "setting": "EZH1 Complex", "result": 104.86, "unit": "%"}, {"measurement": "remaining activity at 20 µM", "setting": "NSD2 (T1150A); [1]", "result": 23.9, "unit": "%"}, {"measurement": "remaining activity at 20 µM", "setting": "NSD2 (T1150A); [2]", "result": 25.5, "unit": "%"}, {"measurement": "inhibition relative to DMSO controls", "setting": "NSD2 (T1150A); summary of Table 1", "result": "at least 7500"}, {"measurement": "remaining activity at 20 µM", "setting": "SUV39H1; [1]", "result": 2.36, "unit": "%"}, {"measurement": "remaining activity at 20 µM", "setting": "SUV39H1; [2]", "result": 2.53, "unit": "%"}, {"measurement": "inhibition relative to DMSO controls", "setting": "SUV39H1; summary of Table 1", "result": "at least 7500"}, {"measurement": "remaining activity at 20 µM", "setting": "SET7/9; [1]", "result": 107, "unit": "%"}, {"measurement": "remaining activity at 20 µM", "setting": "SET7/9; [2]", "result": 107, "unit": "%"}, {"measurement": "Enzyme % Activity (relative to DMSO controls) Data 1", "setting": "NSD1; [3]", "result": 34.29, "unit": "%"}, {"measurement": "Enzyme % Activity (relative to DMSO controls) Data 2", "setting": "NSD1; [3]", "result": 36.14, "unit": "%"}, {"measurement": "inhibition relative to DMSO controls", "setting": "NSD1; summary of Table 1", "result": "at least 7500"}]}
